This note sets out measurements from patent US20040192641A1, “Special preparation of anticancer drugs made by novel nanotechnology” (priority 2003, published 2004).

Marks after values point to notes of the source that are not given here.

Data set [1] relates to tumor S-180. Put plainly: Survival time of tumor-bearing mice (CUR). Particulars: mouse, in vivo. The source says:
(§1) The acceptable criterion for determining the anti-tumor efficacy of the free CUR and PK-CUR-NP are the determination of the life span prolongation.
(§2) The number of dead cells in the peritoneal fluid of mice treated with PK-CUR-NP increased life span when compared to free CUR.

Data set [2] concerns tumor S-180. Put plainly: Stained dead tumor cells in peritoneal fluid of tumor-bearing mice (CUR). The data set is classed as in vivo. Particulars: 12th day of tumor S-180 inoculation.
Description: as §1, §2

For the next data set, the system named is tumor cells. Put plainly: Stained dead tumor cells in peritoneal fluid of tumor-bearing mice (ELE, CPT). It counts as in vivo. To be noted: 12th day of tumor inoculation. The text has this: The acceptable criterion for determining the anti-tumor efficacy of the formulation over the free ELE and PK-ELE-NP are the determination of the life span prolongation.
The number of dead cells in the peritoneal fluid of mice treated with PK-ELE-NP formulation increased life span when compared to free ELE.
The acceptable criterion for determining the anti-tumor efficacy of the formulation over the free drug and PK-CPT-NP are the determination of the life span prolongation. The number of dead cells in the peritoneal fluid of mice treated with PK-CPT-NP formulation increased life span when compared to free CPT.

For the next data set, the system named is sarcoma-180 solid tumors. Put plainly: Effect on sarcoma-180 solid tumors in mice (survival). The data set is classed as in vivo. To be noted: Example 54; percentage survival, 30 days observation after tumor cell inoculation.
The subject of another data set is breast carcinoma MCF-7. Put plainly: Inhibition of tumor cell proliferation, MCF-7. The data set is classed as cell-based. Particulars: Homo sapiens, MCF7; 1 μg/ml, 72 hours. On the procedure: (§3) Human tumor cell lines: Hela leukemia HL-60, malignant melanocarcinoma B16, oral epidermoid carcinoma (KB), lung carcinoma (A549), breast carcinoma MCF-7, adenocarcinoma of stomach.
(§4) Animal tumor cell lines: Walker carcinoma, LLC-WRC-256, malignant melanoma (RMMI 1846), 3T3, and S-180 sarcoma (CCRF-180). All lines were routinely cultured in the RPMI1640 medium supplemented 20% fetal calf serum. The experiment was carried out in 96 microplate, each well had 5×10^5 cells and given desired concentration of 1 μg/ml (1×10^−6 g/ml) drug. Then the plate was incubated at 37° C. in an atmosphere of humidified air enriched with 5 percent carbon dioxide for 72 hours.
(§5) Inhibition percent rate of tumor cell proliferation was obtained according to the bellow formula. [formula]

The next data set deals with L-120 leukemia. Put plainly: Survival of mice bearing leukemia (free HHT vs PK-HHT-NP). The data set is classed as in vivo. The text has this:
Methods: L-120 leukemia mice, weight 20-22 g were used in the experiment. […] The dose of PK-HHT-NP is equivalent of free HHT. (All the following comparing experiments are used same methods).

Data set [3] is described as follows: Pharmacokinetic study: tissue AUC. The data set is classed as in vivo, mice. To be noted: 0.5 mg HHT/kg via the tail. Here is the method: Present example described Pharmacokinetic studied of NP. Free HHT and PK-HHT-NP were given to mice via the tail at dose of 0.5 mg HHT/kg. Other methods are as same as method of Example 22.
Another data set deals with HL-60 cells. Put plainly: Differentiation of human leukemic cells (HL-60), Example 57. It counts as cell-based. On the procedure: Cell Lines. HL-60 cells were established from a patient with acute myeloid leukemia. The cells were cultured in culture flasks with RPMI plus 10% FCS.
Studies of Induction of Differentiation. Differentiation of HL-60 cells was assessed by their abilities to produced superoxide as measured by reduction of NBT, by NSE staining and by morphology as detected on cytospin preparations stained with Diff-Quick stain Set, and by analysis of membrane-bound differentiation markers with two-color immunofluorescence. Briefly, cells were preincubated at 4° C. for 60 min in 10% human AB serum and then with FITC-conjugated mouse IgGI isotype control. Analysis of fluorescence was performed on a flow cytometer.
Cell Cycle Analysis. The cell cycle was analyzed by flow cytometry after 60 h of incubation of HL-60 cells either with or without HHT (10^−8 M) as described. Briefly, the cells were fixed in cold methanol and incubated for 30 min at 4° C. in the dark with a solution of 50 μg/ml propidium iodide, 1 mg/ml Rnase, and 0.1% NP40. Analysis was performed immediately after staining using the CELLFIT program whereby the S-phase was calculated with Rfit model.
Clonogenic Assay in soft Agar. HL-60 cells were culture in a two-layer soft agar system for 10 days without adding any growth factors as described previously, and colonies were counted using an inverted microscope. […]

Data set [4] has as its system malignant melanocarcinoma B16. Put plainly: Inhibition of tumor cell proliferation, B16. It counts as cell-based, human. To be noted: Mus musculus; 1 μg/ml, 72 hours. On the procedure:
as §3, §4, §5

As for `C=C1C[C@@]2(O)O[C@@]3(C[C@H]2C(C)C)[C@@H](C)CC[C@@H]13` [CUR, Curcumol], in the data set with tumor S-180 [1], the “Increase in life span T/C (%)” value came out at 134.78% and the “MST” value came out at 31 ± 1.9 days. In addition, in the data set with tumor S-180 [2], the “Number of stained dead tumor cells (1 × 10^6 cells mL^−1)” value (“Number of stained dead tumor cells” for short) is 5.36 ± 0.95 1 × 10^6 cells mL^−1.

Turning to `CC[C@@]1(O)C(=O)OCc2c1cc1n(c2=O)Cc2cc3ccccc3nc2-1` [CPT, Camptothecin], the “Number of stained dead tumor cells” value in the data set on tumor cells is reported as 5.36 ± 0.95 1 × 10^6 cells mL^−1.

In general, inhibition refers to how much of the control response was suppressed. Low readings indicate little suppression, high ones strong suppression. `COC(=O)C[C@](O)(CCCC(C)(C)O)C(=O)O[C@@H]1C(OC)=C[C@]23CCCN2CCc2cc4c(cc2[C@H]13)OCO4` [HHT, Homoharringtonine]: the “Mean survival (%)” value in the data set on sarcoma-180 solid tumors was 58.6%. In addition, 1 µg/mL produced 78.5 ± 7.9% inhibition in the data set on breast carcinoma MCF-7. For the same compound, in the data set with L-120 leukemia (Dose 1 mg/kg), the “Survival time T/L days” value is given as 5/9 and the “T/C (%)” value was found to be 55.6%. Besides, in the data set with L-120 leukemia (Dose 5 mg/kg), the “Survival time T/L days” value is 27/9 and the “T/C (%)” value was 300%. Besides, in data set [3], the “Tissue AUC, Blood” value came to 3.0 µg·h/g; the “Tissue AUC, Cancer” value amounted to 12.0 µg·h/g; the “Tissue AUC, Heart” value was 89.2 µg·h/g; the “Tissue AUC, Kidney” value amounted to 243.2 µg·h/g. Moreover, in [3], the “Tissue AUC, Liver” value turned out to be 168.8 µg·h/g; the “Tissue AUC, Lung” value worked out at 138.9 µg·h/g; the “Tissue AUC, Spleen” value was found to be 192.8 µg·h/g. For the same compound, the “NBT (%)” value in the data set with HL-60 cells was 65* %. Further, in [4], testing at 1 µg/mL gave an inhibition of 73.8 ± 8.1%.

Take Eelemene: in the data set on tumor cells, the “Number of stained dead tumor cells” value is 5.80 ± 0.80 1 × 10^6 cells mL^−1.
